Each compound was assayed against T1, E. coli LpxH (Escherichia coli, UniProt P43341) (assay: MBP-AaLpxE-coupled LpxH activity assay (malachite green)). Details: read-out: E. coli LpxH enzyme inhibition IC50.
T1 construct: His6 (C); made in house; host or cells: E. coli BL21-AI (pET-26b(+), synthetic gene from GenScript)
Assay type: biochemical
Experimental: E. coli-optimized EcLpxH and KpLpxH sequences, cloned into a pET-26b(+) vector (Novagene) using NdeI/XhoI restriction sites, were ordered from GenScript Biotech (the Netherlands), giving constructs with a His6-tag at the C-terminal end, and bearing kanamycin resistance. Competent E. coli BL21-AI cells (Invitrogen) were transformed and grown at 37 °C in Luria broth containing 50 μg/mL kanamycin to an OD600 of 0.5 to 1.0, then induced for 2 to 3 h by adding IPTG and L-arabinose to final concentrations of 0.5 mM and of 2 mg/mL, respectively. Harvested cells were lysed in a One-Shot cell disrupter (Constant Systems Ltd., UK) in 20 mM Tris-HCl pH 8.0, 300 mM NaCl, 20 mM imidazole, 4 M urea, 5% (v/v) glycerol, 0.01 mg/mL RNase A and 0.02 mg/mL DNase, plus cOmplete, EDTA-free protease inhibitor cocktail (Roche). Proteins were purified using Ni-nitrilotriacetic acid agarose (Qiagen), HiTrap Heparin HP affinity chromatography (Cytiva), and HiLoad 16/60 Superdex 200 chromatography (Amersham Biosciences). Final samples were concentrated to 15 mg/mL protein and stored in aliquots in 20 mM Tris-HCl (pH 8.0) containing 300 mM NaCl and 2 mM DTT at −80 °C. Assays were performed essentially as described by ref. [26]. Additional assay details are available in SI Appendix.
Cloning, expression and purification of LpxHs. E. coli-optimized EcLpxH and KpLpxH sequences, cloned into a pET-26b(+) vector (Novagene) using NdeI/XhoI restriction sites, were ordered from GenScript Biotech (the Netherlands), giving constructs with a His6-tag at the C-terminal end, and bearing kanamycin resistance. The correctness of the sequences was verified by DNA sequencing. Competent E. coli BL21-AI cells (Invitrogen) were transformed with the resulting plasmids for protein production.
Cultures of 8 L of Luria broth containing 50 μg/mL kanamycin were grown at 37 °C to an OD600 of 0.5-1.0, then induced by adding IPTG to a final concentration of 0.5 mM and L-arabinose to a final concentration of 2 mg/ml. After 2-3 h of incubation at 37 °C, cells were harvested by centrifugation, and the pellet was resuspended in lysis buffer (20 mM Tris-HCl pH 8.0, 300 mM NaCl, 20 mM imidazole, 4 M urea, 5% (v/v) glycerol, 0.01 mg/mL RNase A and 0.02 mg/mL DNase, plus one tablet of cOmplete, EDTA-free cocktail protease inhibitor cocktail (Roche)).
Cells were lysed using a One-Shot cell disrupter (Constant Systems Ltd., UK). The lysate was spun down and the soluble fraction containing LpxH was incubated at 4 °C overnight with 1.5 mL pre-equilibrated Ni-nitrilotriacetic acid agarose (Qiagen) slurry using the same buffer. The column was then washed in steps of 30 column volumes with lysis buffer (without RNase A, DNase and protease inhibitor) containing 3, 2, 1, 0.5 and 0 M of urea. The protein was then eluted with eight column volumes of 500 mM imidazole in the same buffer. Fractions containing the desired protein as judged by SDS gels were pooled and purified on a HiTrap Heparin HP affinity column (Cytiva) (loading buffer 20 mM Tris-HCl, pH 8.0 and 5% glycerol, 2 mM DTT; elution buffer 20 mM Tris-HCl, pH 8.0 and 5% glycerol, 1 M NaCl, 2 mM DTT) and further applied to a HiLoad 16/60 Superdex 200 preparative grade column (Amersham Biosciences) pre-equilibrated with 20 mM Tris-HCl, pH 8.0, 300 mM NaCl, 5% glycerol, 2 mM
DTT. […]
for EcLpxH2 and KpLpxH, respectively, calculated using the ProtParam tool(1) were analyzed by SDS PAGE and stored in 20 mM Tris-HCl (pH 8.0) containing 300 mM NaCl and 2 mM DTT at -80 […]

T1 sequence (P43341 whole entry): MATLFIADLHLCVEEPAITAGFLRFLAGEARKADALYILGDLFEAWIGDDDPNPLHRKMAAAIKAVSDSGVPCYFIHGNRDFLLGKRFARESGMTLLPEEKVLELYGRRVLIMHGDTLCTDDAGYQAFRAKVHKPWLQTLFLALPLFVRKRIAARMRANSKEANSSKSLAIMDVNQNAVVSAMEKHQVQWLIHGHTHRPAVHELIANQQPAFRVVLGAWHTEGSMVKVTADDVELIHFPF

**Q.** With `CC(=O)N1CCc2cc(S(=O)(=O)N3CCN(c4cccc(C(F)(F)F)c4)CC3)ccc21` [AZ1, reference compound] as the compound, how does the IC50 read?
**A.** 520 nM

**Q.** How did the IC50 turn out when `CN(c1ccc(CNCCN)cc1C(=O)Nc1ccc(S(=O)(=O)N2CCN(c3cc(Cl)cc(Cl)c3)CC2)cc1)S(C)(=O)=O` [EBL-3025] was run?
**A.** 3.4 nM

**Q.** Which IC50 does the source give for `Cc1cc(C#N)nc(N2CCN(S(=O)(=O)c3ccc(NC(=O)c4ccccc4N(C)S(C)(=O)=O)cc3)CC2)n1` [EBL-3339] here?
**A.** 1.5 nM

**Q.** With `CN(c1ccccc1C(=O)Nc1ccc(S(=O)(=O)N2CCCCC2)cc1)S(C)(=O)=O` [JEDI-852] as the compound, how does the IC50 read?
**A.** 1300 nM

**Q.** For `CN(c1ccccc1C(=O)Nc1ccc(S(=O)(=O)N2CCN(c3cccc(C(F)(F)F)c3)CC2)cc1)S(C)(=O)=O` [JEDI-1444], which IC50 is on record?
**A.** 2.6 nM
